Laboratory results reported in patent publication US12702677B2 (priority 2008, dated 2026).

Experiments:
A or B influenza virus = conditions: started during the first 48 hours after onset of symptoms; cited from earlier work
[1] = adults; cited from earlier work
[2] = animal studies, substantially high doses; cited from earlier work
[3] = test system: matrix metalloproteinase 9 (MMP-9) expression; test: Quantikine Human MMP-9 (total) immunoassay, MMP-9 expression in influenza-A-infected Vero cells; assay type: cell-based, African Green Monkey; conditions: influenza A-infected Vero cell supernatants, FIGS. 5 and 6
Procedure: A Quantikine Human MMP-9 (total) Immunoassay Assay, R&D Systems, was used to quantify expression of MMP-9 in infected cells according to the manufacturer's protocol, which is incorporated herein by reference.
Vero cells were plated at 1e^5 cells/mL in a 100 uL volume in tissue culture treated 96 well plates. The following day cells were infected with virus at a multiplicity of infection of 10 and viral activity was measured. For testing compounds, cells were preincubated with compound 1 hr prior to infection. After overnight incubation, the cells were harvested, lysed, and supernatants were subjected to assay.
This MMP-9 assay employs the quantitative sandwich enzyme immunoassay technique. A monoclonal antibody specific for MMP-9 has been pre-coated onto a microplate. Standards and samples are pipetted into the wells, and MMP-9 is bound by the immobilized antibody. After washing away unbound substances, an enzyme-linked polyclonal antibody specific for MMP-9 is added to the wells. Following a wash to remove unbound antibody-enzyme reagent, a substrate solution is added to the wells and color develops in proportion to the amount of total MMP-9 (pro and/or active) bound in the initial step. The color development is stopped and the intensity of the color is measured.
Test formulations are shown in Example 5, Table 1. […]

CC(=O)N[C@H]1[C@H]([C@H](O)[C@H](O)CO)OC(C(=O)O)=C[C@@H]1N=C(N)N [Relenza®, zanamivir]
reduction of the duration of a typical seven day illness (A or B influenza virus): about one

Cc1ncc(CO)c(CO)c1O [Vitamin B6, Pyridoxine]
safe intake [1]: up to 200 mg per day

CC(N)C12CC3CC(CC(C3)C1)C2 (stereo not drawn) [rimantadine]
teratogenicity and embryotoxicity [2]: teratogenic and embryotoxic

CCOC(=O)C1=C[C@@H](OC(CC)CC)[C@H](NC(C)=O)[C@@H](N)C1 [Formula T, oseltamivir phosphate]
reduction of the duration of a typical seven day illness (A or B influenza virus): about one | inhibition of expression of MMP-9 [3]: pronounced dose-dependent inhibition of expression of MMP-9 | inhibition of expression of MMP-9 ([3]; listed as Tamiflu®): inhibits expression of MMP-9
